SMILES strings stand for the structures. In brackets after ≈: the same amount, converted by molar mass.

Consider 16 compounds from US12304912B2, “Fused bicyclic RAF inhibitors and methods for use thereof” (Jazz Pharmaceuticals Ireland Limited, priority 2020, dated 2025).

A short description of one data set: FeSSIF solubility assay. To be noted: fed state simulated intestinal fluid (FeSSIF), thermodynamic from solid, pH 5 acetate buffer, 37° C., read-out: FESSIF Sol. It counts as physicochemical. A digest of the protocol: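 FeSSIF (pH 5 acetate buffer, 1 mL) was added to 1.0 mg solid compound and shaken at 650 rpm and 37 °C for 24 h. After filtration, dissolved compound was quantified by LC-UV against a 250 μM calibration standard.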

A further data set has as its system HCT-116 cells. Nature of the data set: HCT-116 CellTiter-Glo 3D cell proliferation assay. In kind it is cell-based. To be noted: Homo sapiens, HCT-116; HCT116 cells, 3D proliferation; read-out: 3D HCT116 pGI50 (converted). As to the method: HCT-116 CellTiter-Glo 3D Cell Proliferation Assay
The human HCT-116 colorectal carcinoma cell line (ATCC CCL-247) endogenously expresses the KRAS^G13D mutation, which leads to enhanced survival and proliferative signaling. […] On the first day, HCT-116 cells were harvested, resuspended in growth medium (McCoys5A with Glutamax (Life Technologies 36600021) with 10% heat-inactivated fetal bovine serum (Sigma F9665)), and counted. Cells were plated in 100 μl per well in each well of a Corning 7007 96-well clear round bottom Ultra-Low Attachment plate (VWR 444-1020) to a final density of 1000 cells per well. Cells were seeded for pre- and post-treatment readouts. The cells were then incubated at 37° C. and 5% CO2 for 3 days (72 hours) to allow spheroid formation. After 72 hours, the plate seeded for a pre-treatment read was removed from the incubator to allow equilibration to room temperature for 30 minutes, before CellTitre-Glo® reagent was added to each well. The plates were incubated at room temperature for 5 minutes shaking at 300 rpm, followed by an incubation of 25 minutes on the benchtop before being read on the Envision reader (Perkin Elmer) as described below. On the same day, the cells plated for the post-treatment readout were dosed with compounds to produce a 9-point dose response, where the top concentration was 15 μM and following concentrations were at 1/2 log dilution intervals. These cells were subsequently incubated at 37° C. and 5% CO2 for another 4 days (96 hours). After 4 days, the plate was removed from the incubator to allow equilibration to room temperature for 30 minutes and treated with CellTitre Glo® reagent as stated above. […] The CellTitre Glo® reagent lyses the cells and contains luciferin and a luciferase (Ultra-Glo™ Recombinant Luciferase), which in the presence of ATP and oxygen can produce bioluminescence from luciferin. Therefore, plates were read on an EnVision reader (Perkin Elmer) and luminescence signals were recorded. Cell proliferation was determined on 4 days after dosing relative to the pre-treatment read. All data were analyzed using the Dotmatics or GraphPad Prism software packages. Inhibition of proliferation was assessed by determination of the GI50 value, which was defined as the concentration of compound required to decrease the level of cell proliferation by 50% when compared to DMSO control.

A further data set relates to WiDr cells. The data set can be described thus: WiDr CellTiter-Glo 3D cell proliferation assay. The conditions noted are these: Homo sapiens; WiDr cells, 3D proliferation; read-out: 3D WiDr pGI50 (converted). In kind it is cell-based.
The test system of data set [1] is constitutive ERK phosphorylation in WiDr cells. The data set can be described thus: WiDr AlphaLISA SureFire pERK1/2 cellular assay. It counts as cell-based, human. The conditions noted are these: WiDr cells, 2 hr, Abs; for IC50: Homo sapiens, read-out: pERK WiDr (2 hr) Abs pIC50 (converted). The procedure: The human HCT-116 colorectal carcinoma cell line (ATCC CCL-247) endogenously expresses the KRAS^G13D mutation, which leads to constitutive activation of the MAP kinase pathway and phosphorylation of ERK. […] Assay read outs took place 2 or 24 hours after dosing with compounds. On the first day, HCT-116 cells were harvested, resuspended in growth medium (McCoys5A with Glutamax (Life Technologies 36600021) and 10% heat-inactivated fetal bovine serum (Sigma F9665)), and counted. Cells were plated in 100 μl per well in each well of a 96-well culture dish (Sigma CLS3598) to a final density of 30,000 (2 hr read) or 15,000 (24 hr read) cells per well and incubated over night at 37° C. and 5% CO2. On day 2, the growth medium was exchanged for dosing medium (McCoys5A with Glutamax (Life Technologies 36600021) and 1% heat-inactivated fetal bovine serum (Sigma F9665)) and the cells were dosed with compounds to produce a 10-point dose response, where the top concentration was 1 μM and subsequent concentrations were at 1/3 log dilution intervals. A matched DMSO control was included. The cells were subsequently incubated for either 2 or 24 hours at 37° C. and 5% CO2. After incubation, media was removed and the cells were incubated with lysis buffer containing phosphatase inhibitors for 15 minutes at room temperature. Cell lysates were transferred to a 12 area 96 well white Optiplate™ (Perkin Elmer 6005569) and incubated with anti-mouse IgG acceptor beads, a biotinylated anti-ERK1/2 rabbit antibody recognizing both phosphorylated and non-phosphorylated ERK1/2, a mouse antibody targeted to the Thr202/Tyr204 epitope and recognizing phosphorylated ERK proteins only, and streptavidin-coated donor beads. The biotinylated antibody binds to the streptavidin-coated donor beads and the phopsho-ERK1/2 antibody binds to the acceptor beads. Plates were read on an EnVision reader (Perkin Elmer) and excitation of the beads at 680 nm with a laser induced the release of singlet oxygen molecules from the donor beads that trigger energy transfer to the acceptor beads in close proximity, producing a signal that can be measured at […]. Both antibodies bound to phosphorylated ERK proteins, bringing the donor and acceptor beads into close proximity. All data were analyzed using the Dotmatics or GraphPad Prism software packages. Inhibition of ERK phosphorylation was assessed by determination of the absolute IC50 value, which is defined as the concentration of compound required to decrease the level of phosphorylated ERK proteins by 50% when compared to DMSO control.
WiDr AlphaLISA SureFire pERK1/2 Cellular Assay
The human WiDr colorectal adenocarcinoma cell line (ATCC CCL-218) endogenously expresses the BRAF^V600E mutation, which leads to constitutive activation of the MAP kinase pathway and phosphorylation of ERK. […] The main procedure is essentially the same as for HCT-116 cells (above), with the following adjustments to the growth medium (Eagle's Minimum Essential Medium (Sigma M2279) with 1× Glutamax (Life Technologies 35050038), 1× Sodium-Pyruvate (Sigma S8636), and 10% heat-inactivated fetal bovine serum (Sigma F9665)), the dosing medium (Eagle's Minimum Essential Medium (Sigma M2279) with 1× Glutamax (Life Technologies 35050038), 1× Sodium-Pyruvate (Sigma S8636), and 1% heat-inactivated fetal bovine serum (Sigma F9665)), and the seeding densities (2 hr: 50,000 cells per well; 24 hr: 35,000 cells per well). Moreover, the compounds were dosed in 1/2 log dilution intervals with the top concentration of 10 μM.

As to `COc1csc(-c2c[nH]c(C3COc4ccc(Oc5ccnc6c5CCC(=O)N6)cc4C3)n2)c1` (stereo not drawn) [Compound 122, 5-[3-[5-(4-methoxy-2-thienyl)-1H-imidazol-2-yl]chroman-6-yl]oxy-3,4-dihydro-1H-1,8-naphthyridin-2-one], in “FeSSIF solubility assay”, the solubility thermodynamic at 24 h is 124 µg/mL (≈ 260 µM). The GI50 with HCT-116 cells is 182 nM; with WiDr cells, 513 nM. The IC50 in data set [1] is 355 nM.

Turning to `O=C(CN1CCCC1)Nc1cc(Oc2ccc3c(c2)CC(c2nc(-c4ccccc4)c[nH]2)CO3)ccn1` (stereo not drawn) [Compound 152], the solubility thermodynamic at 24 h in the data set “FeSSIF solubility assay” is 997 µg/mL (≈ 2010 µM). In addition, the GI50 with HCT-116 cells was 832 nM; with WiDr cells it was 5620 nM. In addition, the IC50 in data set [1] is 219 nM.

With `CCc1cc(-c2c[nH]c(C3COc4ccc(Oc5ccnc6c5CCC(=O)N6)cc4C3)n2)ccn1` (stereo not drawn) [Compound 118, 5-[3-[4-(2-ethyl-4-pyridyl)-1H-imidazol-2-yl]chroman-6-yl]oxy-3,4-dihydro-1H-1,8-naphthyridin-2-one], the values for the GI50 with HCT-116 cells and with WiDr cells were 398 nM and 1170 nM, respectively. Moreover, the IC50 in data set [1] is 398 nM.

In the case of `COc1cc(-c2c[nH]c(C3COc4ccc(Oc5ccnc6c5CCC(=O)N6)cc4C3)n2)ccn1` (stereo not drawn) [Compound 104], the GI50 is 447 nM in the data set with HCT-116 cells and 1150 nM in the data set on WiDr cells. The “pERK WiDr (2 hr) Abs pIC50” value in data set [1] stood at 5.96.

Turning to `CC(C)CCc1c[nH]c(C2COc3ccc(Oc4ccnc5c4CCC(=O)N5)cc3C2)n1` (stereo not drawn) [Compound 116], the solubility thermodynamic at 24 h in “FeSSIF solubility assay” was 311 µg/mL (≈ 720 µM). In addition, the GI50 was 66.1 nM in the data set with HCT-116 cells and 126 nM with WiDr cells. Further, the IC50 in data set [1] is 39.8 nM.

As to `COc1ccsc1-c1c[nH]c(C2COc3ccc(Oc4ccnc5c4CCC(=O)N5)cc3C2)n1` (stereo not drawn) [Compound 123], the solubility thermodynamic at 24 h in the data set “FeSSIF solubility assay” is 156 µg/mL (≈ 330 µM). The GI50 in the data set with HCT-116 cells was 40.7 nM; in the data set on WiDr cells it was 53.7 nM. Moreover, in data set [1], the IC50 is 33.9 nM.

For `Cc1cc(-c2c[nH]c(C3COc4ccc(Oc5ccnc6c5CCC(=O)N6)cc4C3)n2)ccn1` (stereo not drawn) [Compound 117, 5-[3-[4-(2-methyl-4-pyridyl)-1H-imidazol-2-yl]chroman-6-yl]oxy-3,4-dihydro-1H-1,8-naphthyridin-2-one], the solubility thermodynamic at 24 h in the data set “FeSSIF solubility assay” was 1.4 µg/mL (≈ 3.09 µM). For the same compound, the GI50 was 214 nM in the data set on HCT-116 cells and 708 nM with WiDr cells. Further, the IC50 in data set [1] is 589 nM.

As for `CN1CCC(C(=O)Nc2cc(Oc3ccc4c(c3)CC(c3nc(-c5ccccc5)c[nH]3)CO4)ccn2)CC1` (stereo not drawn) [Compound 147, 1-methyl-N-[4-[3-(4-phenyl-1H-imidazol-2-yl)chroman-6-yl]oxy-2-pyridyl]piperidine-4-carboxamide], the solubility thermodynamic at 24 h in “FeSSIF solubility assay” was 528 µg/mL (≈ 1040 µM). Further, the GI50 in the data set on HCT-116 cells and in the data set on WiDr cells was 1380 nM each time. Besides, in data set [1], the IC50 is 871 nM.

Consider `CC1CC1C(=O)Nc1cc(Oc2ccc3c(c2)CC(c2nc(-c4ccccc4)c[nH]2)CO3)ccn1` (stereo not drawn) [Compound 157], for which the solubility thermodynamic at 24 h in “FeSSIF solubility assay” is 116 µg/mL (≈ 249 µM). Besides, the results for the GI50 in the data set on HCT-116 cells and in the data set on WiDr cells were 263 nM and 661 nM, respectively. For the same compound, the IC50 in data set [1] is 275 nM.

With `O=C(Nc1cc(Oc2ccc3c(c2)CC(c2nc(-c4ccccc4)c[nH]2)CO3)ccn1)C1CC1` (racemic) [Compound 136], in the data set “FeSSIF solubility assay”, the solubility thermodynamic at 24 h is 17.1 µg/mL (≈ 37.8 µM). Further, the GI50 in the data set on HCT-116 cells was 47.9 nM; in the data set with WiDr cells it was 170 nM. Moreover, the IC50 in data set [1] was 66.1 nM.

For `O=C1CCc2c(Oc3ccc4c(c3)CC(c3nc(C5CCOCC5)c[nH]3)CO4)ccnc2N1` (stereo not drawn) [Compound 132, 5-[3-(4-tetrahydropyran-4-yl-1H-imidazol-2-yl)chroman-6-yl]oxy-3,4-dihydro-1H-1,8-naphthyridin-2-one], the solubility thermodynamic at 24 h in the data set “FeSSIF solubility assay” was 41.9 µg/mL (≈ 93.8 µM). The GI50 is 661 nM in the data set on HCT-116 cells and 1150 nM in the data set on WiDr cells. Besides, the IC50 in data set [1] is 832 nM.

As to `O=C(CN1CC[C@@H](O)C1)Nc1cc(Oc2ccc3c(c2)CC(c2nc(-c4ccccc4)c[nH]2)CO3)ccn1` (stereo partly drawn) [Compound 145], the GI50 is 479 nM with HCT-116 cells and 6310 nM in the data set on WiDr cells. In addition, the IC50 in data set [1] is 331 nM.

Turning to `c1ccc(-c2c[nH]c(C3COc4ccc(Oc5ccnc(Nc6ccccn6)c5)cc4C3)n2)cc1` (stereo not drawn) [Compound 140, 4-[3-(4-phenyl-1H-imidazol-2-yl)chroman-6-yl]oxy-N-(2-pyridyl)pyridin-2-amine], the GI50 was 1320 nM with HCT-116 cells and 1910 nM in the data set on WiDr cells. Further, the IC50 in data set [1] is 1260 nM.

As for `O=C1CCc2c(Oc3ccc4c(c3)CC(c3nc5ccncc5[nH]3)CO4)ccnc2N1` (stereo not drawn) [Compound 134, 5-[3-(3H-imidazo[4,5-c]pyridin-2-yl)chroman-6-yl]oxy-3,4-dihydro-1H-1,8-naphthyridin-2-one], the results for the GI50 in the data set with HCT-116 cells and with WiDr cells were 15100 nM and 25700 nM, respectively. Also, the IC50 in data set [1] was 6170 nM.

Regarding `Cn1nc(C(F)(F)F)cc1-c1c[nH]c(C2COc3ccc(Oc4ccnc5c4CCC(=O)N5)cc3C2)n1` (stereo not drawn) [Compound 107, 5-[3-[4-[2-methyl-5-(trifluoromethyl)pyrazol-3-yl]-1H-imidazol-2-yl]chroman-6-yl]oxy-3,4-dihydro-1H-1,8-naphthyridin-2-one], the GI50 in the data set on HCT-116 cells is 229 nM; with WiDr cells, 776 nM. Moreover, the IC50 in data set [1] is 209 nM.

Turning to `Cn1ncc2ccc(-c3c[nH]c(C4COc5ccc(Oc6ccnc7c6CCC(=O)N7)cc5C4)n3)cc21` (stereo not drawn) [Compound 130, 5-[3-[4-(1-methylindazol-6-yl)-1H-imidazol-2-yl]chroman-6-yl]oxy-3,4-dihydro-1H-1,8-naphthyridin-2-one], the results for the GI50 in the data set with HCT-116 cells and in the data set with WiDr cells were 617 nM and 1660 nM, respectively. The IC50 in data set [1] was 603 nM.
